Assay results from PMC5963010, “Characterization of a novel thermostable and xylose-tolerant GH 39 β-xylosidase from Dictyoglomus thermophilum” (BMC Biotechnology, 2018).

Target: T1, Xln-DT (Dictyoglomus thermophilum, UniProt B5YB78)
T1 construct: gene DICTH_1792; full-length ORF, 502 aa (1509 bp), in pET-20b (BamHI/XhoI), E. coli BL21(DE3); tag not described
T1 sequence (B5YB78 1-502): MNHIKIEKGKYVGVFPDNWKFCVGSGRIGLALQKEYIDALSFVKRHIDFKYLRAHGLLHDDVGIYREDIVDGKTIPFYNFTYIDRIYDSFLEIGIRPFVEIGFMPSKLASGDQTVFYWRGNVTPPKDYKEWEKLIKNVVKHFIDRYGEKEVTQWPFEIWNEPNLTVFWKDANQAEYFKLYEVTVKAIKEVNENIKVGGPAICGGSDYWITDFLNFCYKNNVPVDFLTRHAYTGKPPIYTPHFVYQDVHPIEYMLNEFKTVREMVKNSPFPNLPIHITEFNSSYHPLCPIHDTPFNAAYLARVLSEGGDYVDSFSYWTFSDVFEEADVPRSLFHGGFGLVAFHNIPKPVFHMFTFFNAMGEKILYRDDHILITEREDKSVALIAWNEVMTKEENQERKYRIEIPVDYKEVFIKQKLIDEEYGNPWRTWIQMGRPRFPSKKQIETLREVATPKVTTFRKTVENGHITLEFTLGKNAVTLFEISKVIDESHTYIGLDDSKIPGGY
Test: pNPX hydrolysis assay with added xylose
Type: biochemical

## OC1OC[C@@H](O)[C@H](O)[C@H]1O (stereo partly shown) [xylose]
  inhibition at 3 M: 40%
